Source: patent publication US20050107441A1, “Compositions and methods for altering glucose production” (priority 2001, published 2005)

Key:
SHP mRNA = assay: Insulin treatment of ZDF rats, real-time quantitative PCR of liver RNA: SHP mRNA; assay type: in vivo, Zucker diabetic fatty (ZDF) rats; conditions: pooled RNA samples, 6 hours after subcutaneous insulin vs vehicle (0.9% normal saline)
Description: (§1) In these experiments, ZDF rats were treated for 6 hours with insulin or vehicle (0.9% normal saline) alone. At the end of this period, the rats were killed and RNA prepared from their livers. […] Conversely, PEPCK levels decreased by approximately 2 fold in response to insulin.
(§2) All procedures performed were in compliance with the Animal Welfare Act, USDA regulations and approved by the GlaxoSmithKline Institutional Animal Care and Use Committee. Animals were housed at 72 F and 50% relative humidity with a 12 hour light and dark cycle, and fed chow diet (Formulab Diet 5008, PMI Feeds Inc., Richmond, Ind.). Insulin-treated animals received a mixture of HUMULIN®N and HUMULIN®R (Lilly, Indianapolis, Ind.) by subcutaneous injection and were sacrificed six hours later. RTQ-PCR was performed using an ABI PRISM 7700 Sequence Detection System instrument and software (PE Applied Biosystems, Inc., Foster City, Calif.) in accordance with procedures described by Way et al. (Endocrinology 2001 142: 1269-77). Primers used include:Rat PEPCK forward: TGAGGAAGTTTGTGGAAG (SEQ ID NO:1) • Rat PEPCK reverse: GCCGTCGCAGATGTGAAT (SEQ ID NO:2) • Rat PEPCK probe: TGCCCAGCTGTGCCAGCC (SEQ ID NO:3) • Rat SHP forward: TGGTACCCAGCTAGCCAAG (SEQ ID NO:4) • Rat SHP reverse: TGTTCTTGAGGGTGGAAGC (SEQ ID NO: 5) • Rat SHP probe: CGCCTGGCCCGAATCCTCC (SEQ ID NO:6) [drawing]

PEPCK = assay: Insulin treatment of ZDF rats, real-time quantitative PCR of liver RNA: PEPCK mRNA; assay type: in vivo, Zucker diabetic fatty (ZDF) rats; conditions: pooled RNA samples, 6 hours after subcutaneous insulin vs vehicle (0.9% normal saline)
Description: as §1, §2

insulin
SHP mRNA levels increased in response to insulin (SHP mRNA): approximately 17 fold | PEPCK levels decreased in response to insulin (PEPCK): approximately 2 fold
